Data reported in PubChem BioAssay AID192 (DTP/NCI, 2004).
Inconclusive results and toxic doses are left out.

Test system: BDF1 mice, B16 melanoma ip, median survival T/C
Assay: NCI In Vivo Anticancer Drug Screen. Data for tumor model B16 Melanoma (intraperitoneal) in B6D2F1 (BDF1) mice
Settings: endpoint: median survival time, higher = longer survival
In short: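 Read-out: survival or tumor size, given as treated/control ratio. Controls received vehicle only; animals bore transplantable tumors.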

[1] = dose: 12.5 mg/kg/injection, schedule: Q01DX009 (ip), vehicle: saline
[2] = dose: 25.0 mg/kg/injection, schedule: Q01DX009 (ip), vehicle: saline
[3] = dose: 50.0 mg/kg/injection, schedule: Q01DX009 (ip), vehicle: saline
[4] = dose: 100.0 mg/kg/injection, schedule: Q01DX009 (ip), vehicle: saline
[5] = dose: 12.5 mg/kg/injection, schedule: Q01DX009 (ip), vehicle: saline with Tween-80
[6] = dose: 25.0 mg/kg/injection, schedule: Q01DX009 (ip), vehicle: saline with Tween-80
[7] = dose: 50.0 mg/kg/injection, schedule: Q01DX009 (ip), vehicle: saline with Tween-80
[8] = dose: 50.0 mg/kg/injection, schedule: Q01DX009 (ip), vehicle: Klucel (hydroxypropylcellulose) (HPC)
[9] = dose: 100.0 mg/kg/injection, schedule: Q01DX009 (ip), vehicle: saline with Tween-80
[10] = dose: 100.0 mg/kg/injection, schedule: Q01DX009 (ip), vehicle: Klucel (hydroxypropylcellulose) (HPC)

**Q.** Which results are given for `C=C(C)C12CC(C)C34OC(CCCCCCCCCCC)(OC1C3C1OC1(CO)C(O)C1(O)C(=O)C(C)=CC14C)O2` (stereo not drawn)?
**A.** T/C (dose: 0.05 mg/kg/injection, schedule: Q01DX009 (ip), vehicle: distilled water + Tween-80): 103 % of control; T/C (dose: 0.1 mg/kg/injection, schedule: Q01DX009 (ip), vehicle: distilled water + Tween-80): 102 % of control; T/C (dose: 0.2 mg/kg/injection, schedule: Q01DX009 (ip), vehicle: distilled water + Tween-80): 91 % of control; T/C (dose: 0.4 mg/kg/injection, schedule: Q01DX009 (ip), vehicle: distilled water + Tween-80): 90 % of control

**Q.** How did the T/C (dose: 1.56 mg/kg/injection, schedule: Q01DX009 (ip), vehicle: saline) turn out when `CCCC(Cc1ccccc1)N1CCCC1` (stereo not drawn) was run?
**A.** 105 % of control

**Q.** What about the T/C (dose: 3.12 mg/kg/injection, schedule: Q01DX009 (ip), vehicle: saline) of the same molecule?
**A.** 100 % of control

**Q.** And the T/C (dose: 6.25 mg/kg/injection, schedule: Q01DX009 (ip), vehicle: saline)?
**A.** 92 % of control

**Q.** And the T/C [1]?
**A.** 115 % of control

**Q.** And the T/C [2]?
**A.** 102 % of control

**Q.** Which T/C [1] does the source give for `CN(C)c1n[nH]c(N)n1` here?
**A.** 91 % of control

**Q.** And the T/C [2]?
**A.** 102 % of control

**Q.** And the T/C [3]?
**A.** 95 % of control

**Q.** And the T/C [4]?
**A.** 96 % of control

**Q.** And the T/C (dose: 200.0 mg/kg/injection, schedule: Q01DX009 (ip), vehicle: saline)?
**A.** 102 % of control

**Q.** What about the T/C (dose: 400.0 mg/kg/injection, schedule: Q01DX009 (ip), vehicle: saline) of the same molecule?
**A.** 104 % of control

**Q.** Which T/C [5] does the source give for `Nc1ccc2c(c1)CN1C(=O)c3ccccc3C1=N2` here?
**A.** 101 % of control

**Q.** And the T/C [6]?
**A.** 103 % of control

**Q.** What about the T/C [7] of the same molecule?
**A.** 111 % of control

**Q.** Which results are given for `c1ccc(C(C2=NCCN2)c2ccccc2)cc1`?
**A.** T/C (dose: 25.0 mg/kg/injection, schedule: Q04DX003 (ip), vehicle: Klucel (hydroxypropylcellulose) (HPC)): 105 % of control; T/C (dose: 50.0 mg/kg/injection, schedule: Q04DX003 (ip), vehicle: Klucel (hydroxypropylcellulose) (HPC)): 91 % of control; T/C (dose: 100.0 mg/kg/injection, schedule: Q04DX003 (ip), vehicle: Klucel (hydroxypropylcellulose) (HPC)): 95 % of control

**Q.** Which results are given for `O=[N+]([O-])c1cc(F)cc([N+](=O)[O-])c1O`?
**A.** T/C (dose: 12.5 mg/kg/injection, schedule: Q01DX009 (ip), vehicle: Klucel (hydroxypropylcellulose) (HPC)): 124 % of control; T/C (dose: 25.0 mg/kg/injection, schedule: Q01DX009 (ip), vehicle: Klucel (hydroxypropylcellulose) (HPC)): 103 % of control; T/C [8]: 96 % of control

**Q.** Which results are given for `CCCCN1CCNCC1`?
**A.** T/C [2]: 103 % of control; T/C [3]: 103 % of control; T/C [4]: 101 % of control

**Q.** How did the T/C [5] turn out when `O=c1ccc2nc3ccccc3sc-2c1` was run?
**A.** 93 % of control

**Q.** What about the T/C [6] of the same molecule?
**A.** 86 % of control

**Q.** And the T/C [7]?
**A.** 95 % of control

**Q.** What about the T/C [9] of the same molecule?
**A.** 91 % of control

**Q.** Which T/C (dose: 10.0 mg/kg/injection, schedule: Q01DX001 (ip), vehicle: water) does the source give for `COc1cccc2c1C(=O)c1c(O)c3c(c(O)c1C2=O)CC(O)(C(C)=O)CC3OC1CC(NC(=O)C(CCCCN)NC(=O)C2CCCN2)C(O)C(C)O1` (stereo not drawn) here?
**A.** 117 % of control

**Q.** What about the T/C (dose: 20.0 mg/kg/injection, schedule: Q01DX001 (ip), vehicle: water) of the same molecule?
**A.** 123 % of control

**Q.** What about the T/C (dose: 40.0 mg/kg/injection, schedule: Q01DX001 (ip), vehicle: water) of the same molecule?
**A.** 158 % of control

**Q.** And the T/C (dose: 80.0 mg/kg/injection, schedule: Q01DX001 (ip), vehicle: water)?
**A.** 191 % of control

**Q.** Which T/C [8] does the source give for `C[C@]12CC[C@H](O)C[C@@H]1CC[C@@H]1[C@@H]2C(=O)C[C@@]2(C)[C@H]1CC[C@]2(O)C(=O)CBr` here?
**A.** 90 % of control

**Q.** What about the T/C [7] of the same molecule?
**A.** 100 % of control

**Q.** And the T/C [10]?
**A.** 93 % of control

**Q.** What about the T/C [9] of the same molecule?
**A.** 94 % of control

**Q.** What about the T/C (dose: 200.0 mg/kg/injection, schedule: Q01DX009 (ip), vehicle: saline with Tween-80) of the same molecule?
**A.** 91 % of control

**Q.** With `CCOC(=O)CC(=O)c1ccccc1F` as the molecule, how does the T/C [10] read?
**A.** 99 % of control

**Q.** And the T/C (dose: 200.0 mg/kg/injection, schedule: Q01DX009 (ip), vehicle: Klucel (hydroxypropylcellulose) (HPC))?
**A.** 102 % of control

**Q.** And the T/C (dose: 400.0 mg/kg/injection, schedule: Q01DX009 (ip), vehicle: Klucel (hydroxypropylcellulose) (HPC))?
**A.** 106 % of control
